These results are taken from patent publication US11773078B2, “Furin inhibitors” (Glaxosmithkline Intellectual Property Development Limited, priority 2018, dated 2023).

Assay [1] deals with T1, Furin (108-574-Tev-Flag-His) enzyme (Homo sapiens, UniProt P09958).
T1 construct: Furin (108-574-Tev-Flag-His) enzyme was expressed and purified from CHO cells; TEV cleavage site (C); FLAG (C); His (C); made in house; host or cells: CHO cells
Description: Furin enzyme assay. The assay is classed as biochemical. The essentials:
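CHO-expressed, purified furin construct at 40 pM in 100 mM HEPES pH7.5, 1 mM CaCl2, 0.005% Triton X-100. Eleven-point 1:3 series, 0.00017–10 μM final, incubated 2 h at room temperature and read on Envision. pXC50 from four-parameter fit.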

Assay [2] has as its target T2, furin (endogenous protease) in U20S cells (Homo sapiens, UniProt P09958).
T2 construct: the endogenous protease cleaves GFP; endogenous in cells; host or cells: U2OS cells transduced with a BacMam reporter
Description: Furin cell-based assay (image-based, Golgi-targeted GFP with BMP10 furin/PCSK cleavage site).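 Further: Read-out is mean GFP fluorescence of Golgi puncta per cell by high-content imaging, retained when furin inhibited, over an eleven-point 0.00017–10 µM series, four-parameter fit.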 The conditions noted are these: 24-hour incubation, read-out: furin golgi cell pXC50 (converted).

Where a name gives a salt, the structure may show the parent alone.

T1 sequence (P09958 108-574): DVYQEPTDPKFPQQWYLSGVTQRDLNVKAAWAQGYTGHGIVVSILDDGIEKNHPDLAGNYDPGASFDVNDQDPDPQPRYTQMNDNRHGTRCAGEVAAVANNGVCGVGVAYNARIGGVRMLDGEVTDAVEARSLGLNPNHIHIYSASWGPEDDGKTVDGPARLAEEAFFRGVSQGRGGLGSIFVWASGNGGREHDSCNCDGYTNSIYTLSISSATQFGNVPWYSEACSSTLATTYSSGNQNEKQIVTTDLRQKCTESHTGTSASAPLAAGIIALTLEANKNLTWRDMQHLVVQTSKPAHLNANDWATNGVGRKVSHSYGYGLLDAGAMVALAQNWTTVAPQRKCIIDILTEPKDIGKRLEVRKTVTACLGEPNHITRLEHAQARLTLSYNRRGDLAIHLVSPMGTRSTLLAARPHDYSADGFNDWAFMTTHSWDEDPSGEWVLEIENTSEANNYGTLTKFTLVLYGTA
T2 sequence (P09958 108-794): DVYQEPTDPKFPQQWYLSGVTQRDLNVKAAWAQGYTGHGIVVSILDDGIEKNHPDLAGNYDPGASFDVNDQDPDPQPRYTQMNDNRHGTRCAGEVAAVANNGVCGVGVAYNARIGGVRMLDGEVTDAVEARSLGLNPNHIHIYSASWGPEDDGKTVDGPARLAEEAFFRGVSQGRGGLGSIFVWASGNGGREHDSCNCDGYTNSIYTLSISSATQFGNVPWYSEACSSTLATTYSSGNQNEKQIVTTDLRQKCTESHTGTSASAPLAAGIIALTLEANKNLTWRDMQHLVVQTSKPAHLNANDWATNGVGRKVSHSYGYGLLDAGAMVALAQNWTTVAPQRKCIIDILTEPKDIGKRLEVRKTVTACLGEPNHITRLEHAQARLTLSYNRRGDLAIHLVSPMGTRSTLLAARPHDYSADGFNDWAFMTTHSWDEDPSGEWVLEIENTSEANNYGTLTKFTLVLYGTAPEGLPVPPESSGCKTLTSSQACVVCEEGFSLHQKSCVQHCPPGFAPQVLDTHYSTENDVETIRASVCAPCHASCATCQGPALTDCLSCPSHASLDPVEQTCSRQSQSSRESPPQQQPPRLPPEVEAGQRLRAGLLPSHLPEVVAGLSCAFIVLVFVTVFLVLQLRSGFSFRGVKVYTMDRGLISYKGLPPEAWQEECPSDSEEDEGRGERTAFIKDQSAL

Take `CN1CCN(c2cnc(Oc3cc(CN4CCC(OC5(C(=O)O)CC5)CC4)cc(-c4cc(Cl)cc(Cl)c4)n3)cn2)CC1` [Example 353, 1-((1-((2-(3,5-dichlorophenyl)-6-((5-(4-methylpiperazin-1-yl)pyrazin-2-yl)oxy)pyridin-4-yl)methyl)piperidin-4-yl)oxy)cyclopropanecarboxylic acid]: in assay [1], the “furin enzyme pIC50” value is recorded as 8.1. Also, the EC50 in assay [2] is 25.1 nM.
The matching figures for `CS(=O)(=O)CCCN1CCN(c2cnc(Oc3cc(CN4CCC(CC(=O)O)CC4)cc(-c4cc(Cl)cc(Cl)c4)n3)cn2)CC1` [Example 354, 2-(1-((2-(3,5-dichlorophenyl)-6-((5-(4-(3-(methylsulfonyl)propyl)piperazin-1-yl)pyrazin-2-yl)oxy)pyridin-4-yl)methyl)piperidin-4-yl)acetic acid]: 8.1 and 25.1 nM.
As to `CCN1CCCN(c2ccc(Oc3cc(CN4CCC(CC(=O)O)CC4)cc(-c4cc(Cl)cc(Cl)c4)n3)nn2)CC1` [Example 355, 2-(1-((2-(3,5-dichlorophenyl)-6-((6-(4-ethyl-1,4-diazepan-1-yl)pyridazin-3-yl)oxy)pyridin-4-yl)methyl)piperidin-4-yl)acetic acid], the “furin enzyme pIC50” value in assay [1] was 8.6. The EC50 in assay [2] is 10 nM.
As to `CN1CCCN(c2ccc(Oc3cc(CN4CCC(CC(=O)O)CC4)cc(-c4cc(Cl)cc(Cl)c4)n3)nn2)CC1` [Example 356, 2-(1-((2-(3,5-dichlorophenyl)-6-((6-(4-methyl-1,4-diazepan-1-yl)pyridazin-3-yl)oxy)pyridin-4-yl)methyl)piperidin-4-yl)acetic acid], the “furin enzyme pIC50” value in assay [1] amounted to 8.6. Further, the EC50 in assay [2] was 31.6 nM.
For the compound `CN1C[C@@H]2C[C@H]1CN2c1ccc(Oc2cc(CN3CCC(CC(=O)O)CC3)cc(-c3cc(Cl)cc(Cl)c3)n2)nn1` [Example 357, 2-(1-((2-(3,5-dichlorophenyl)-6-((6-((1S,4S)-5-methyl-2,5-diazabicyclo[2.2.1]heptan-2-yl)pyridazin-3-yl)oxy)pyridin-4-yl)methyl)piperidin-4-yl)acetic acid], the “furin enzyme pIC50” value in assay [1] is given as 8.5. For the same compound, the EC50 in assay [2] was 100 nM.
In the case of `CCN1CCN(c2ccc(Oc3cc(CN4CCC(CC(=O)O)CC4)cc(-c4cc(Cl)cc(Cl)c4)n3)nn2)CC1` [Example 358, 2-(1-((2-(3,5-dichlorophenyl)-6-((6-(4-ethylpiperazin-1-yl)pyridazin-3-yl)oxy)pyridin-4-yl)methyl)piperidin-4-yl)acetic acid], in assay [1], the “furin enzyme pIC50” value amounted to 9.1. The EC50 in assay [2] was 20 nM.
Turning to `CN1CCN(c2ccc(Oc3cc(CN4CCC(CC(=O)O)CC4)cc(-c4cc(Cl)cc(Cl)c4)n3)nn2)CC1` [Example 359, 2-(1-((2-(3,5-dichlorophenyl)-6-((6-(4-methylpiperazin-1-yl)pyridazin-3-yl)oxy)pyridin-4-yl)methyl)piperidin-4-yl)acetic acid], the “furin enzyme pIC50” value in assay [1] amounted to 9. Further, the EC50 in assay [2] is 63.1 nM.
The matching figures for `CN1CCN(c2ccc(Oc3cc(CN4CCC(CCO)CC4)cc(-c4cc(Cl)cc(Cl)c4)n3)nn2)CC1` [Example 360, 2-(1-((2-(3,5-dichlorophenyl)-6-((6-(4-methylpiperazin-1-yl)pyridazin-3-yl)oxy)pyridin-4-yl)methyl)piperidin-4-yl)ethanol]: 9 and 12.6 nM.
Take `CN1CCN(c2ccc(Oc3cc(CN4CC[C@@H]5[C@H](CC4)[C@H]5C(=O)O)cc(-c4cc(Cl)cc(Cl)c4)n3)nn2)CC1` [Example 361, (1R,7S,8r)-4-((2-(3,5-dichlorophenyl)-6-((6-(4-methylpiperazin-1-yl)pyridazin-3-yl)oxy)pyridin-4-yl)methyl)-4-azabicyclo[5.1.0]octane-8-carboxylic acid]: the “furin enzyme pIC50” value in assay [1] amounted to 9. The EC50 in assay [2] was 50.1 nM.
Consider `CN1CCCN(c2ccc(Oc3cc(CN4CC[C@@H]5[C@H](CC4)[C@H]5C(=O)O)cc(-c4cc(Cl)cc(Cl)c4)n3)nn2)CC1` [Example 362, (1R,7S,8r)-4-((2-(3,5-dichlorophenyl)-6-((6-(4-methyl-1,4-diazepan-1-yl)pyridazin-3-yl)oxy)pyridin-4-yl)methyl)-4-azabicyclo[5.1.0]octane-8-carboxylic acid], for which, in assay [1] (read-out: furin enzyme pIC50 (converted)), the IC50 is 0.0316 nM. For the same compound, the EC50 in assay [2] was 25.1 nM.
Turning to `CC(=O)NCC1CCN(Cc2cc(Oc3ccc(N4CCN(CC(C)C(=O)O)CC4)nn3)nc(-c3cc(Cl)cc(Cl)c3)c2)CC1` (centres unmarked) [Example 363, 3-(4-(6-((4-((4-(acetamidomethyl)piperidin-1-yl)methyl)-6-(3,5-dichlorophenyl)pyridin-2-yl)oxy)pyridazin-3-yl)piperazin-1-yl)-2-methylpropanoic acid], the “furin enzyme pIC50” value in assay [1] is 9.7. Besides, the EC50 in assay [2] is 631 nM.
For the compound `C[C@@H](CC1CCN(Cc2cc(Oc3ccc(N4CCN(C)CC4)nn3)nc(-c3cc(Cl)cc(Cl)c3)c2)CC1)C(=O)O` [Example 365, (S)-3-(1-((2-(3,5-dichlorophenyl)-6-((6-(4-methylpiperazin-1-yl)pyridazin-3-yl)oxy)pyridin-4-yl)methyl)piperidin-4-yl)-2-methylpropanoic acid], the “furin enzyme pIC50” value in assay [1] is 9.9. The EC50 in assay [2] is 126 nM.
With `CCN1C[C@@H]2C[C@H]1CN2c1ccc(Oc2cc(CN3CCC(CC(=O)O)CC3)cc(-c3cc(Cl)cc(Cl)c3)n2)nn1` [Example 366, 2-(1-((2-(3,5-dichlorophenyl)-6-((6-((1S,4S)-5-ethyl-2,5-diazabicyclo[2.2.1]heptan-2-yl)pyridazin-3-yl)oxy)pyridin-4-yl)methyl)piperidin-4-yl)acetic acid], the “furin enzyme pIC50” value in assay [1] worked out at 8.8. Moreover, the EC50 in assay [2] is 31.6 nM.
The matching figures for `CC(=O)N[C@H]1[C@@H]2CCN(Cc3cc(Oc4cnc(N5CCN(CCC(=O)O)CC5)nc4)nc(-c4cc(Cl)cc(Cl)c4)c3)CC[C@@H]21` [Example 367]: 10.1 and 2.51 nM.
With `COC(=O)C(C)CCN1CCN(c2ncc(Oc3cc(CN4CCC(CNC(C)=O)CC4)cc(-c4cc(Cl)cc(Cl)c4)n3)cn2)CC1` (centres unmarked) [Example 368, methyl 4-(4-(5-((4-((4-(acetamidomethyl)piperidin-1-yl)methyl)-6-(3,5-dichlorophenyl)pyridin-2-yl)oxy)pyrimidin-2-yl)piperazin-1-yl)-2-methylbutanoate], in assay [1], the “furin enzyme pIC50” value worked out at 8.3. In assay [2], the EC50 is 3.98 nM.
The matching figures for `CC(=O)NCC1CCN(Cc2cc(Oc3cnc(N4CCN(CCC(C)(C)C(=O)O)CC4)nc3)nc(-c3cc(Cl)cc(Cl)c3)c2)CC1` [Example 370, 4-(4-(5-((4-((4-(Acetamidomethyl)piperidin-1-yl)methyl)-6-(3,5-dichlorophenyl)pyridin-2-yl)oxy)pyrimidin-2-yl)piperazin-1-yl)-2,2-dimethylbutanoic acid, 4 hydrochloride]: 9.2 and 6.31 nM.
For `Cc1c(CN2CCC(CC(=O)O)CC2)cc(-c2cc(Cl)cc(Cl)c2)nc1Oc1ccc(N2CCN(C)CC2)nn1` [Example 371, 2-(1-((6-(3,5-Dichlorophenyl)-3-methyl-2-((6-(4-methylpiperazin-1-yl)pyridazin-3-yl)oxy)pyridin-4-yl)methyl)piperidin-4-yl)acetic acid] the same measures were 8.9 and 31.6 nM.
The matching figures for `CC(=O)NCC1CCN(Cc2cc(Oc3cnc(N4CCN(C(C)CCS(C)(=O)=O)CC4)nc3)nc(-c3cc(F)cc(Cl)c3)c2)CC1` (centres unmarked) [Example 372, N-((1-((2-(3-Chloro-5-fluorophenyl)-6-((2-(4-(4-(methylsulfonyl)butan-2-yl)piperazin-1-yl)pyrimidin-5-yl)oxy)pyridin-4-yl)methyl)piperidin-4-yl)methyl)acetamide]: 8.8 and 3.98 nM.
Consider `CNC(=O)NCC1CCN(Cc2cc(Oc3cnc(N4CCN(C(C)CCS(C)(=O)=O)CC4)nc3)nc(-c3cc(F)cc(Cl)c3)c2)CC1` (centres unmarked) [Example 373, 1-((1-((2-(3-chloro-5-fluorophenyl)-6-((2-(4-(4-(methylsulfonyl)butan-2-yl)piperazin-1-yl)pyrimidin-5-yl)oxy)pyridin-4-yl)methyl)piperidin-4-yl)methyl)-3-methylurea], for which the “furin enzyme pIC50” value in assay [1] is listed as 8.9. In addition, the EC50 in assay [2] is 5.01 nM.
With `CN1CCCN(c2ncc(Oc3cc(CN4CCC(CC(=O)O)CC4)cc(-c4cc(F)cc(Cl)c4)n3)cn2)CC1` [Example 374, 2-(1-((2-(3-chloro-5-fluorophenyl)-6-((2-(4-methyl-1,4-diazepan-1-yl)pyrimidin-5-yl)oxy)pyridin-4-yl)methyl)piperidin-4-yl)acetic acid], the “furin enzyme pIC50” value in assay [1] worked out at 7.9. In addition, the EC50 in assay [2] is 158 nM.
For `CC(C)N(c1cnc(N2CCN(C)CC2)nc1)c1cc(CN2CCC(CC(=O)O)CC2)cc(-c2cc(Cl)cc(Cl)c2)n1` [Example 375, 2-(1-((2-(3,5-Dichlorophenyl)-6-(isopropyl(2-(4-methylpiperazin-1-yl)pyrimidin-5-yl)amino)pyridin-4-yl)methyl)piperidin-4-yl)acetic acid] the same measures were 7.9 and 251 nM.
Regarding `CN1CCN(c2ncc(Oc3cc(-c4cc(Cl)cc(Cl)c4)cc(CN4CCC(CC(=O)O)CC4)c3F)cn2)CC1` [Example 376, 2-(1-((3′,5′-dichloro-4-fluoro-5-((2-(4-methylpiperazin-1-yl)pyrimidin-5-yl)oxy)-[1,1′-biphenyl]-3-yl)methyl)piperidin-4-yl)acetic acid], the “furin enzyme pIC50” value in assay [1] was 8.7. For the same compound, in assay [2], the EC50 is 25.1 nM.
